# Measured values taken from US8577624B2, “Crystal structure of a plasma membrane proton pump” (Aarhus Universitet, priority 2007, dated 2013).
# What was measured:
# [1] = target: T1, plasma membrane H+-ATPase (Arabidopsis thaliana, UniProt P19456); assay: Inhibition of H+ ATPase ATP hydrolytic activity by platin and holmium ions (Pi production); type: biochemical; settings: 20 mM Mops pH 6.5, 50 mM KCl, 8 mM MgCl2, 3 mM ATP; various concentrations; FIG. 12; numbers only in figure
# T1 sequence (P19456 1-948): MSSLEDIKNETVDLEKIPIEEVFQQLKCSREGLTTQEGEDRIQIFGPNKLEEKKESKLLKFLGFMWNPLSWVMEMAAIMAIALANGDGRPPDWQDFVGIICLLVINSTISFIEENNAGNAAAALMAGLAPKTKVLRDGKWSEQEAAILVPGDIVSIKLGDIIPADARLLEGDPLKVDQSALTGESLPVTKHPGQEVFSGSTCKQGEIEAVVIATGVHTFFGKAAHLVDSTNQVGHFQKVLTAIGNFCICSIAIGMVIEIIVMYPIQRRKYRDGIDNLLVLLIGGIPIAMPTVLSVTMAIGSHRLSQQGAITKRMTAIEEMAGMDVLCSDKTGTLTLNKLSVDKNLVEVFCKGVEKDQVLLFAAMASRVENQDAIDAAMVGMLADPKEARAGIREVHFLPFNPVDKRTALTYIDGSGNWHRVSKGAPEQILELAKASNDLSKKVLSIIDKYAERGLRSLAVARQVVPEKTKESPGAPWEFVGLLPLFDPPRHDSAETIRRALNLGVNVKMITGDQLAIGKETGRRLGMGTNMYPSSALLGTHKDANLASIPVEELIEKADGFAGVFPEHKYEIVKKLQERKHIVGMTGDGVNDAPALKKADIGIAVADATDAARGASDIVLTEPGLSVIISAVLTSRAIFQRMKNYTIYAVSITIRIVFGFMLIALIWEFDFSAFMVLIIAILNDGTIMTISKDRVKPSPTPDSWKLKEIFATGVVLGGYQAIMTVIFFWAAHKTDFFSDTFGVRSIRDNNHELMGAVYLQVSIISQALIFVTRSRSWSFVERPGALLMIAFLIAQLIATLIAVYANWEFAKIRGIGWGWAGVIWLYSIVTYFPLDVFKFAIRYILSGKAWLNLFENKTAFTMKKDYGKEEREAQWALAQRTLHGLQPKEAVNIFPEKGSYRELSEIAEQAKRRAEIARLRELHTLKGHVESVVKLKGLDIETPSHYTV
# Method: Assay conditions are 20 mM Mops, pH: 6.5, 50 mM KCl, 8 mM MgCl2 and 3 mM ATP. Production of Pi was measured by standard […] tests. The results are shown in FIG. 12A and the activity is given as the percentage of the ATP hydrolytic activity in the absence of various concentrations of Pt (±StDev).
# Assay conditions are 20 mM Mops, pH: 6.5, 50 mM KCl, 8 mM MgCl2 and 3 mM ATP. Production of Pi was measured by standard […] tests. The results are shown in FIG. 12B and the activity is given as the percentage of the ATP hydrolytic activity in the absence of various concentrations of Ho (±StDev).
# [2] = test system: plasma membrane H+-ATPases; settings: vanadate in its plus 5 valence state; cited from earlier work
# [3] = target: Sarcoplasmic Endoplasmic Reticulum Ca2+-ATPase (SERCA); settings: blocking SERCA; cited from earlier work
smiles,measurement,setting,value
[Ho+3] [Ho],ATP hydrolytic activity of plasma membrane H+-ATPase,[1],inhibits
[O]=[V]([O-])([O-])[O-] [Vanadate],concentration at which the pumps are inhibited,[2],μM range
C/C=C(/C)C(=O)O[C@H]1C(C)=C2[C@H]([C@@H]1OC(=O)CCCCCCC)[C@@](C)(OC(C)=O)C[C@H](OC(=O)CCC)[C@@]1(O)[C@H]2OC(=O)[C@@]1(C)O [thapsigargin],Kd,[3],sub-nanomolar range
